pIC50: −log10 of the molar value.

T1 sequence (Q92633 whole entry): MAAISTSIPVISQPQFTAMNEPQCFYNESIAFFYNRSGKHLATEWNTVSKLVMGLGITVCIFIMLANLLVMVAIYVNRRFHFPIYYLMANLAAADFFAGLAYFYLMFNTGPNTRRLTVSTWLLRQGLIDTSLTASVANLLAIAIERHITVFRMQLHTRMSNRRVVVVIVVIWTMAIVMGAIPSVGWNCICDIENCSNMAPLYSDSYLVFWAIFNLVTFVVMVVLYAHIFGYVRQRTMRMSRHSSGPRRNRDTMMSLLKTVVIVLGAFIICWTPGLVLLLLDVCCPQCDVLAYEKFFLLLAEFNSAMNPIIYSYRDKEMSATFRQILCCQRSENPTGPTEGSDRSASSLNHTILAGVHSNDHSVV

The assay has as its target T1, human LPA1 (Homo sapiens, UniProt Q92633).
T1 construct: the full-length cDNA for human LPA1 was obtained by PCR of the reverse transcription reaction; expressed in transfected cells
In words: LPA1 calcium flux assay. It is filed as cell-based. Particulars: human LPA1 expressing CHO cells, stimulated with 10 nM LPA; read-out: HLPA1 Ca Flux IC50. Summed up: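 CHO cells stably expressing human LPA1, serum-starved overnight and loaded with Calcium 4 dye in HBSS/20 mM Hepes/0.3% fatty-acid-free HSA, 1 h at 37 °C. Compounds pre-incubated 30 min at room temperature, then 10 nM LPA added; intracellular Ca2+ flux measured and IC50 from titration curves.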
A general note: Calcium assays in cells follow changes in intracellular calcium, usually with a dye or a luminescent sensor.
With `Cc1noc(-c2ccc(-c3ccc(C4(C(=O)O)CC4)cc3)cc2)c1Nc1cccc(N2CCOCC2)n1` [Compound 1-124, 1-{4′-[3-Methyl-4-(6-morpholin-4-yl-pyridin-2-ylamino)-isoxazol-5-yl]-biphenyl-4-yl}-cyclopropanecarboxylic acid], the negative logarithm of the IC50 (pIC50) (usually the negative decadic logarithm of the IC50, by convention in mol/L) was above 6.52.
The figure for `Cc1noc(-c2ccc(-c3ccc(C4(C(=O)O)CC4)cc3)cc2)c1Nc1cccc(OCc2ccccc2)n1` [Compound 1-125, 1-{4′-[4-(6-Benzyloxy-pyridin-2-ylamino)-3-methyl-isoxazol-5-yl]-biphenyl-4-yl}-cyclopropanecarboxylic acid] is above 6.52.
The figure for `Cc1noc(-c2ccc(-c3ccc(C4(C(=O)O)CC4)cc3)cc2)c1Nc1cccc(Sc2ccccc2)n1` [Compound 1-126, 1-{4′-[3-Methyl-4-(6-phenylsulfanyl-pyridin-2-ylamino)-isoxazol-5-yl]-biphenyl-4-yl}-cyclopropanecarboxylic acid] is above 6.52; for `Cc1noc(-c2ccc(-c3ccc(C4(C(=O)O)CC4)cc3)cc2)c1Nc1cccc([S+]([O-])c2ccccc2)n1` (centres unmarked) [Compound 1-127, 1-{4′-[4-(6-Benzenesulfinyl-pyridin-2-ylamino)-3-methyl-isoxazol-5-yl]-biphenyl-4-yl}-cyclopropanecarboxylic acid] it is above 6.52.
With `Cc1noc(-c2ccc(-c3ccc(C4(C(=O)O)CC4)cc3)cc2)c1Nc1cccc(S(=O)(=O)c2ccccc2)n1` [Compound 1-128, 1-{4′-[4-(6-Benzenesulfonyl-pyridin-2-ylamino)-3-methyl-isoxazol-5-yl]-biphenyl-4-yl}-cyclopropanecarboxylic acid], the pIC50 is above 6.52.
`Cc1noc(-c2ccc(-c3ccc(C4(C(=O)O)CC4)cc3)cc2)c1C(O)c1cncc(-c2ccccc2)c1` (centres unmarked) [Compound 1-129, 1-(4′-{4-[Hydroxy-(5-phenyl-pyridin-3-yl)-methyl]-3-methyl-isoxazol-5-yl}-biphenyl-4-yl)-cyclopropanecarboxylic acid]: the pIC50 is above 6.52.
For the molecule `Cc1noc(-c2ccc(-c3ccc(C4(C(=O)O)CC4)cc3)cc2)c1C(O)c1cncc(-c2cccc(C(F)(F)F)c2)c1` (centres unmarked) [Compound 1-130, 1-[4′-(4-{Hydroxy-[5-(3-trifluoromethyl-phenyl)-pyridin-3-yl]-methyl}-3-methyl-isoxazol-5-yl)-biphenyl-4-yl]-cyclopropanecarboxylic acid], the pIC50 was above 6.52.
In the case of `Cc1noc(-c2ccc(-c3ccc(C4(C(=O)O)CC4)cc3)cc2)c1Nc1cccc(C#Cc2ccccc2)n1` [Compound 1-131, 1-{4′-[3-Methyl-4-(6-phenylethynyl-pyridin-2-ylamino)-isoxazol-5-yl]-biphenyl-4-yl}-cyclopropanecarboxylic acid], the pIC50 was above 6.52.
As for `Cc1noc(-c2ccc(-c3ccc(CCC(=O)O)cc3)cc2)c1Nc1cccc(-c2ccccc2)n1` [Compound 1-132, 3-{4′-[3-Methyl-4-(6-phenyl-pyridin-2-ylamino)-isoxazol-5-yl]-biphenyl-4-yl}-propionic acid], the pIC50 is above 6.52.
Take `Cc1noc(-c2ccc(-c3ccc(C(C)(C)C(=O)O)cc3)cc2)c1Nc1cccc(-c2ccccc2)n1` [Compound 1-133, 2-Methyl-2-{4′-[3-methyl-4-(6-phenyl-pyridin-2-ylamino)-isoxazol-5-yl]-biphenyl-4-yl}-propionic acid]: the negative-log IC50 (pIC50) was above 6.52.
Turning to `Cc1noc(-c2ccc(-c3ccc(C4(CC(=O)O)CC4)cc3)cc2)c1Nc1cccc(-c2ccccc2)n1` [Compound 1-134, (1-{4′-[3-Methyl-4-(6-phenyl-pyridin-2-ylamino)-isoxazol-5-yl]-biphenyl-4-yl}-cyclopropyl)-acetic acid], the pIC50 is above 6.52.
As for `Cc1noc(-c2ccc(-c3ccc(C4(C(=O)O)CC4)cc3)cc2)c1Nc1cccc(C#CC2CCCC2)n1` [Compound 1-135, 1-{4′-[4-(6-Cyclopentylethynyl-pyridin-2-ylamino)-3-methyl-isoxazol-5-yl]-biphenyl-4-yl}-cyclopropanecarboxylic acid], the pIC50 is 6.00 to 6.52.
On to `Cc1noc(-c2ccc(-c3ccc(C4(C(=O)O)CC4)cc3)cc2)c1Nc1cccc(C(=O)N2CCCC2)n1` [Compound 1-136, 1-(4′-{3-Methyl-4-[6-(pyrrolidine-1-carbonyl)-pyridin-2-ylamino]-isoxazol-5-yl}-biphenyl-4-yl)-cyclopropanecarboxylic acid], for which the pIC50 was above 6.52.
As to `Cc1noc(-c2ccc(-c3ccc(C4(C(=O)O)CC4)cc3)cc2)c1Nc1cccc(C(=O)NC2CC2)n1` [Compound 1-137, 1-{4′-[4-(6-Cyclopropylcarbamoyl-pyridin-2-ylamino)-3-methyl-isoxazol-5-yl]-biphenyl-4-yl}-cyclopropanecarboxylic acid], the pIC50 is above 6.52.
As for `Cc1noc(-c2ccc(-c3ccc(C4(C(=O)O)CC4)cc3)cc2)c1Nc1cccc(OC2CCCCC2)n1` [Compound 1-138, 1-{4′-[4-(6-Cyclohexyloxy-pyridin-2-ylamino)-3-methyl-isoxazol-5-yl]-biphenyl-4-yl}-cyclopropanecarboxylic acid], the pIC50 was above 6.52.
Consider `Cc1noc(-c2ccc(-c3ccc(C4(C(=O)O)CC4)cc3)cc2)c1Nc1cccc(OC2CCC2)n1` [Compound 1-139, 1-{4′-[4-(6-Cyclobutoxy-pyridin-2-ylamino)-3-methyl-isoxazol-5-yl]-biphenyl-4-yl}-cyclopropanecarboxylic acid], for which the negative-log IC50 (pIC50) was above 6.52.
For the molecule `Cc1noc(-c2ccc(-c3ccc(C4(C(=O)O)CC4)cc3)cc2)c1Nc1cccc(OC(C)C2CCCCC2)n1` (centres unmarked) [Compound 1-140, 1-(4′-{4-[6-(1-Cyclohexyl-ethoxy)-pyridin-2-ylamino]-3-methyl-isoxazol-5-yl}-biphenyl-4-yl)-cyclopropanecarboxylic acid], the pIC50 is above 6.52.
`Cc1noc(-c2ccc(-c3ccc(C4(C(=O)O)CC4)cc3)cc2)c1Nc1cccc(OCCc2ccccc2)n1` [Compound 1-141, 1-{4′-[3-Methyl-4-(6-phenethyloxy-pyridin-2-ylamino)-isoxazol-5-yl]-biphenyl-4-yl}-cyclopropanecarboxylic acid]: the pIC50 was above 6.52.
For `Cc1noc(-c2ccc(-c3ccc(C(=O)O)cc3)cc2)c1Nc1nnc(-c2ccccc2)o1` [Compound 1-142, 4′-[3-Methyl-4-(5-phenyl-[1,3,4]oxadiazol-2-ylamino)-isoxazol-5-yl]-biphenyl-4-carboxylic acid], the pIC50 was 4.30 to 6.00.
With `Cc1noc(-c2ccc(-c3ccc(C4(C(=O)O)CC4)cc3)cc2)c1Nc1cccc(N2CCOC2=O)n1` [Compound 1-143, 1-(4′-{3-Methyl-4-[6-(2-oxo-oxazolidin-3-yl)-pyridin-2-ylamino]-isoxazol-5-yl}-biphenyl-4-yl)-cyclopropanecarboxylic acid], the pIC50 is above 6.52.
On to `Cc1noc(-c2ccc(-c3ccc(C4(C(=O)O)CC4)cc3)cc2)c1Nc1cccc(-c2cccc(C(N)=O)c2)n1` [Compound 1-144, 1-(4′-{4-[6-(3-Carbamoyl-phenyl)-pyridin-2-ylamino]-3-methyl-isoxazol-5-yl}-biphenyl-4-yl)-cyclopropanecarboxylic acid], for which the pIC50 is above 6.52.
For `Cc1noc(-c2ccc(-c3ccc(C4(C(=O)O)CC4)cc3)cc2)c1Nc1cccc(-c2cccc(C#N)c2)n1` [Compound 1-145, 1-(4′-{4-[6-(3-Cyano-phenyl)-pyridin-2-ylamino]-3-methyl-isoxazol-5-yl}-biphenyl-4-yl)-cyclopropanecarboxylic acid], the pIC50 is above 6.52.
As to `COc1ccc(F)cc1-c1cccc(Nc2c(C)noc2-c2ccc(-c3ccc(C4(C(=O)O)CC4)cc3)cc2)n1` [Compound 1-146, 1-(4′-{4-[6-(5-Fluoro-2-methoxy-phenyl)-pyridin-2-ylamino]-3-methyl-isoxazol-5-yl}-biphenyl-4-yl)-cyclopropanecarboxylic acid], the pIC50 is above 6.52.
Consider `Cc1noc(-c2ccc(-c3ccc(C4(C(=O)O)CC4)cc3)cc2)c1Nc1cccc(-c2cc(F)cc(Cl)c2)n1` [Compound 1-147, 1-(4′-{4-[6-(3-Chloro-5-fluoro-phenyl)-pyridin-2-ylamino]-3-methyl-isoxazol-5-yl}-biphenyl-4-yl)-cyclopropanecarboxylic acid], for which the pIC50 was above 6.52.
As for `Cc1noc(-c2ccc(-c3ccc(C4(C(=O)O)CC4)cc3)cc2)c1Nc1cccc(-c2cc(F)ccc2F)n1` [Compound 1-148, 1-(4′-{4-[6-(2,5-Difluoro-phenyl)-pyridin-2-ylamino]-3-methyl-isoxazol-5-yl}-biphenyl-4-yl)-cyclopropanecarboxylic acid], the pIC50 was above 6.52.
In the case of `Cc1noc(-c2ccc(-c3ccc(C4(C(=O)O)CC4)cc3)cc2)c1Nc1cccc(-c2nn[nH]n2)n1` [Compound 1-149, 1-(4′-{3-Methyl-4-[6-(2H-tetrazol-5-yl)-pyridin-2-ylamino]-isoxazol-5-yl}-biphenyl-4-yl)-cyclopropanecarboxylic acid], the pIC50 is 4.30 to 6.00.
In the case of `Cc1noc(-c2ccc(-c3ccc(C4(C(=O)O)CC4)cc3)cc2)c1Nc1cccc(-c2c(Cl)cccc2Cl)n1` [Compound 1-150, 1-(4′-{4-[6-(2,6-Dichloro-phenyl)-pyridin-2-ylamino]-3-methyl-isoxazol-5-yl}-biphenyl-4-yl)-cyclopropanecarboxylic acid], the pIC50 is above 6.52.
Regarding `Cc1noc(-c2ccc(-c3ccc(C4(C(=O)O)CC4)cc3)cc2)c1Nc1cccc(-c2cc(F)ccc2Cl)n1` [Compound 1-151, 1-(4′-{4-[6-(2-Chloro-5-fluoro-phenyl)-pyridin-2-ylamino]-3-methyl-isoxazol-5-yl}-biphenyl-4-yl)-cyclopropanecarboxylic acid], the pIC50 was above 6.52.
As to `Cc1noc(-c2ccc(-c3ccc(C4(C(=O)O)CC4)cc3)cc2)c1Nc1cccc(-c2cccc(F)c2F)n1` [Compound 1-152, 1-(4′-{4-[6-(2,3-Difluoro-phenyl)-pyridin-2-ylamino]-3-methyl-isoxazol-5-yl}-biphenyl-4-yl)-cyclopropanecarboxylic acid], the pIC50 was above 6.52.

(Values after patent US8664220B2, “Polycyclic compounds as lysophosphatidic acid receptor antagonists” (Amira Pharmaceuticals, Inc., priority 2009, dated 2014).)
